# Patent US12351653B1, “Pharmaceutical compositions comprising novel cyclic peptides” (LISATA THERAPEUTICS, INC., priority 2019, dated 2025)
# Tests used:
# [1] = test system: metastatic pancreatic cancer; experiment: Phase I trial (CEND-001) of CEND-1 with gemcitabine and nab-paclitaxel: response and survival; format: in vivo, human
# Method: (§1) Patients will first receive the intravenous infusion of nabpaclitaxel (125 mg/m^2 over 30 minutes (±3 minutes)).
# (§2) Patients (n=31) who had measurable metastatic pancreatic cancer, no prior treatments for metastatic disease and an ECOG PS of 0 to 1 were included. Primary endpoints are safety and optimal biologic dose, secondary and exploratory endpoints included response rates, pharmacokinetics and biomarkers.
# CA19-9 = experiment: Phase I trial (CEND-001): tumor biomarker CA19-9; format: in vivo, human; settings: with nab-paclitaxel and gemcitabine
# Method: as §1, §2
# Of these, 23 patients had at least one on-treatment CA19-9 measurement.
# [2] = with nab-paclitaxel and gemcitabine
# [3] = with nab-paclitaxel and gemcitabine, RECIST 1.1, 29 evaluable patients
# [4] = patients with elevated baseline CA19-9 and a postbaseline assessment (23)
substance,measurement,setting,value
Ac-Cys-Arg-Gly-Asp-Lys-Gly-Pro-Asp-Cys-NH2 (Cys & Cys Bridge) [CEND-1],Complete response,"[1]; with nab-paclitaxel 125 mg/m^2 and gemcitabine 1000 mg/m^2, investigator assessed RECIST 1.1, 29 evaluable patients",3.4%
same,Median time to progression,[1]; [2],approximately 9.7 months
same,Response rates relative to the benchmark trials,[1]; [2],> 2 times
same,Patients with progression,"[1]; with nab-paclitaxel and gemcitabine, 16/29 patients",55.2%
same,Confirmed objective responses (OR),"[1]; with nab-paclitaxel and gemcitabine, 17/29 patients (95% CI=38.9, 76.5)",58.6%
same,Partial response,[1]; [3],55%
same,Progressive disease,[1]; [3],6.9%
same,Stable disease,[1]; [3],34%
same,Overall response rate (ORR),"[1]; with nab-paclitaxel and gemcitabine, all evaluable patients (N=29)",59%
same,Median (IQR) PFS,"[1]; with nab-paclitaxel and gemcitabine, at study closure",9.7 months
same,Overall disease control rate for 16 weeks,"[1]; with nab-paclitaxel and gemcitabine, evaluable patients (N=29)",79%
same,Patients with a ≥50% reduction in CA19-9 from Baseline,"CA19-9; Cycle 5 Day 1, 20/22 patients",90.9%
same,Patients with CA19-9 decrease from baseline of at least 20%,CA19-9; [4],96%
same,Patients with CA19-9 decrease of at least 90% and/or CA19-9 levels normalized,CA19-9; [4],74%
